Measurements reported in US9308180B2, “Compositions and methods for preparation of poorly water soluble drugs with increased stability” (Abraxis BioScience, LLC, priority 2005, dated 2016).

Key:
[1] = Rate of dissolution of docetaxel forms in acetonitrile; type: physicochemical; conditions: 5 mg/mL (anhydrous basis)
Description: To compare if the different types of docetaxel material had different solubility profiles as a result of their different structures, their solubility rates were compared in the solvent acetonitrile. Acetonitrile was added to a fixed amount of docetaxel from different suppliers to obtain a concentration of 5 mg/mL (anhydrous basis). The rate at which dissolution of the different docetaxels occurred was observed. It was observed that the anhydrous docetaxels (from 2 different suppliers) dissolved completely in less than 1 minute. […] Under these further diluted conditions, the time to dissolve was between 5 and 10 minutes for the hydrated materials. A similar observation was made when using the solvent chloroform.

[2] = Stability of docetaxel forms dissolved in Tween 80; type: physicochemical; conditions: 40 mg/mL (on anhydrous basis) in Tween 80, after a few days
Description: It is well known that docetaxel is formulated with Tween 80 as a solubilizer or emulsifier for the commercial product Taxotere. The different docetaxels were dissolved in Tween 80 at a concentration of 40 mg/mL (on anhydrous basis). […] Thus, the anhydrous docetaxel is preferred in the Tween formulation. In addition it may be useful to use a Tween 80 or equivalent surfactant that is anhydrous or very low in water content as the anhydrous form of docetaxel may absorb water to form the hydrated form which could result in precipitation.

Structure (SMILES) | Time to dissolve completely [1] | Sediment or precipitate in Tween 80 solution [2] | Dissolution (observation) [1]
CC(=O)O[C@@]12CO[C@@H]1C[C@H](O)[C@@]1(C)C(=O)[C@H](O)C3=C(C)[C@@H](OC(=O)[C@H](O)[C@@H](NC(=O)OC(C)(C)C)c4ccccc4)C[C@@](O)([C@@H](OC(=O)c4ccccc4)[C@H]21)C3(C)C [anhydrous docetaxel, docetaxel] | less than 1 minute | no precipitate was observed | –
CC(=O)O[C@@]12CO[C@@H]1C[C@H](O)[C@@]1(C)C(=O)[C@H](O)C3=C(C)[C@@H](OC(=O)[C@H](O)[C@@H](NC(=O)OC(C)(C)C)c4ccccc4)C[C@@](O)([C@@H](OC(=O)c4ccccc4)[C@H]21)C3(C)C [partial hydrate, docetaxel hemihydrate] | – | – | did not readily dissolve
